Laboratory results taken from PMC9103758 (International Journal of Molecular Sciences, 2022).
Several values for one entry are separate records, joined by “and”; a condition that tells them apart may be missing. Equal values may be shown once. Read-outs that look alike come from different tables or passages of the source.

Key:
human CFTR = target: T1, human CFTR (Homo sapiens, UniProt P13569); assay: Apical membrane current of CFTR in FRT cells expressing human CFTR; format: cell-based; conditions: 20 μM
T1 construct: expressed in transfected cells; host or cells: Fisher rat thyroid (FRT) cells
Excerpt: […]. (C) Summary of dose-response (mean ± S.E., n = 5). […]. (F) Summary of dose−response (mean ± S.E., n = 6).
Snapwell inserts containing ANO1(abc) or CFTR-expressing FRT cells were mounted in Ussing chambers (Physiological Instruments, San Diego, CA). The basolateral hemichamber was filled with buffer solution (in mM): 120 NaCl, 5 KCl, 1 MgCl2, 1 CaCl2, 10 D-glucose, 2.5 HEPES, and 25 NaHCO3 (pH 7.4). The apical hemichamber was filled with buffer solution (in mM): 60 NaCl, 60 Na-gluconate, 5 KCl, 1 MgCl2, 1 CaCl2, 10 D-glucose, 2.5 HEPES, and 25 NaHCO3 (pH 7.4). FRT cells were bathed for a 10 min stabilization period and gassed with 5% CO2 and 95% O2 at 37 °C. The apical membrane current was recorded with an EVC4000 Multi-Channel V/I Clamp (World Precision Instruments, Sarasota, FL, USA) and a PowerLab 4/35 (AD Instruments, Castle Hill, Australia).

human ANO2 = target: T2, human ANO2 (Homo sapiens, UniProt Q9NQ90); assay: YFP fluorescence quenching assay in FRT cells expressing human ANO2; format: cell-based; conditions: 30 μM, ANO2 activated by 100 μM ATP
T2 construct: expressed in transfected cells; host or cells: Fisher rat thyroid (FRT) cells
T2 sequence (Q9NQ90 1-998): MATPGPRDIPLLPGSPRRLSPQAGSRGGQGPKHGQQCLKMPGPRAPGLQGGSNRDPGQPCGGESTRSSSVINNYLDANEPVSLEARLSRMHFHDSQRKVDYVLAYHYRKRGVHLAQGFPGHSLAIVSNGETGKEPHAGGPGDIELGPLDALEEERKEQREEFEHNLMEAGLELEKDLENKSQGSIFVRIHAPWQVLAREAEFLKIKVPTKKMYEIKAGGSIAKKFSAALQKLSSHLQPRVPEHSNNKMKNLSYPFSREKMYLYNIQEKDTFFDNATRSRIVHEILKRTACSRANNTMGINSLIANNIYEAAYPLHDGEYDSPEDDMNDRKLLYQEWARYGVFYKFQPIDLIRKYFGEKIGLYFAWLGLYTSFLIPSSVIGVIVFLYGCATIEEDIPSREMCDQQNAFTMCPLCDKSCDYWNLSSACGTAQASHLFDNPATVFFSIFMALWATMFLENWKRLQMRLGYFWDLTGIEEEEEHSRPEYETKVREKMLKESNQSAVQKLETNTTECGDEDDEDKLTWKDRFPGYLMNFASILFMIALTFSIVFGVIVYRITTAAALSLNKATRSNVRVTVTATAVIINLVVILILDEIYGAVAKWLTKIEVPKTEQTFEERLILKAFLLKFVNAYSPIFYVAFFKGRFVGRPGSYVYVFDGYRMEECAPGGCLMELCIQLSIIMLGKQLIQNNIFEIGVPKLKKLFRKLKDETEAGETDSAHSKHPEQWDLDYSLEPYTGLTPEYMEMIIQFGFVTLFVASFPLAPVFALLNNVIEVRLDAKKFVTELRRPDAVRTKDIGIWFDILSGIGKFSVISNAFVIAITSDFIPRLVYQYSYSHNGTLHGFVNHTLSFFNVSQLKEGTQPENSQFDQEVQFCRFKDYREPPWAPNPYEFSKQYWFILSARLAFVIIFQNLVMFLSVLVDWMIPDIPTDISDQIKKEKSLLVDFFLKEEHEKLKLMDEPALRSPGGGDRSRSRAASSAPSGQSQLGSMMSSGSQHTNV
Protocol: ANO2 activity was measured using YFP fluorescence quenching assay in FRT cells expressing human ANO2.
(D) Representative YFP fluorescence traces in FRT cells expressing human ANO2.

ANO1 = target: T3, ANO1 (Homo sapiens, UniProt Q5XXA6, DEL476-501); assay: YFP fluorescence quenching assay for ANO1 activity in FRT-ANO1 cells; format: cell-based; conditions: ATP 100 μM, n = 4
T3 construct: expressed in transfected cells; host or cells: Fisher rat thyroid (FRT) cells; The YFP assay uses FRT-ANO1-YFP cells, which also carry the halide sensor
T3 sequence (Q5XXA6 with tags, fused parts or gaps isoform Q5XXA6-5 DEL539-564): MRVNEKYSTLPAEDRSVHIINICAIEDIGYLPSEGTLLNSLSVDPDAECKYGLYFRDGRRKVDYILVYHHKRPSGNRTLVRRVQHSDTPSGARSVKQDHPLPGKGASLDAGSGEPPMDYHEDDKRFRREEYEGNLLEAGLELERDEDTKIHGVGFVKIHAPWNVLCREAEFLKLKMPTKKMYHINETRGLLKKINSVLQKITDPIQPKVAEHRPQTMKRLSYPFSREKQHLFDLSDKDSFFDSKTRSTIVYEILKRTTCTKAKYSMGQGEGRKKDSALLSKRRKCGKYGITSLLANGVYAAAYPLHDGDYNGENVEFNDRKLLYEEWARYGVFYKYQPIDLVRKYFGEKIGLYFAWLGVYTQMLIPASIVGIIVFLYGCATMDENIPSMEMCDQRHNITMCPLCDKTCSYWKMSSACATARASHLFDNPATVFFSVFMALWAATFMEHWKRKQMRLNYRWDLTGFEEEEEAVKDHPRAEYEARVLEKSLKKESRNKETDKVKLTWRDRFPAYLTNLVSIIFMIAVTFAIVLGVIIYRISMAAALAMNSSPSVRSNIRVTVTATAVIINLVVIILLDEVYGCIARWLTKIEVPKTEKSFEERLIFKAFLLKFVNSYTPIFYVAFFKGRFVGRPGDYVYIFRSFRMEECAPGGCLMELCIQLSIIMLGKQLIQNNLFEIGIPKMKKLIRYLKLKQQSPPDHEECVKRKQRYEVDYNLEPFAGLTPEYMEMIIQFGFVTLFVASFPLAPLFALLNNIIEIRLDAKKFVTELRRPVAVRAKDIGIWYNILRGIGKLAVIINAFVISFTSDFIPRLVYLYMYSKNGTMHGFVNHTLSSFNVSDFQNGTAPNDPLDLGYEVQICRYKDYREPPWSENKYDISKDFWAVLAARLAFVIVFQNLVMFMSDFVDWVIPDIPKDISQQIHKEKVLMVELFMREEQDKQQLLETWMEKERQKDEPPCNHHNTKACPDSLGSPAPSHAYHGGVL
Protocol: Figure 2 Inhibitory effects of VI-101, VI-201 and VI-301 on VRAC and ANO1. (A–C) Representative YFP fluorescence traces for VRAC activity. LN215 cells were treated with the indicated concentrations of VI-101, VI-201 and VI-301 with hypotonic solution for 5 min. (D) Dose-response curve of VRAC inhibition (mean ± S.E., n = 4). (E–G) Representative YFP fluorescence traces for ANO1 activity. […]. (H) Dose-response curve of ANO1 inhibition (mean ± S.E., n = 4).
Human ANO1(abc) expressing Fisher rat thyroid (FRT) cells, ANO2 expressing FRT cells, and human CFTR expressing FRT cells were cultured as described in a previous study. LN215 cells were stably transfected with the halide sensor YFP-F46L/H148Q/I152 and NIH-3T3 cells cultured in DMEM were supplemented with 10% FBS, 2 mM L-glutamine, 100 units/mL penicillin, and 100 μg/mL streptomycin. HEK293T cells were stably transfected with the human Kv11.1 (hERG) and cultured in DMEM supplemented with 10% FBS, 2 mM L-glutamine, 100 units/mL penicillin, and 100 μg/mL streptomycin. PC3, HT29, and HeLa cells were stably transfected with the halide sensor YFP-F46L/H148Q/I152 and cultured in RPMI 1640 supplemented with 10% FBS, 2 mM L-glutamine, 100 units/mL penicillin, and 100 μg/mL streptomycin. […]

VRAC [1] = target: T4, VRAC (Homo sapiens, UniProt Q8IWT6); assay: cell-based; conditions: VRAC IC50, YFP fluorescence quenching, LN215 cells, hypotonic solution 5 min, n = 4
T4 sequence (Q8IWT6 1-810): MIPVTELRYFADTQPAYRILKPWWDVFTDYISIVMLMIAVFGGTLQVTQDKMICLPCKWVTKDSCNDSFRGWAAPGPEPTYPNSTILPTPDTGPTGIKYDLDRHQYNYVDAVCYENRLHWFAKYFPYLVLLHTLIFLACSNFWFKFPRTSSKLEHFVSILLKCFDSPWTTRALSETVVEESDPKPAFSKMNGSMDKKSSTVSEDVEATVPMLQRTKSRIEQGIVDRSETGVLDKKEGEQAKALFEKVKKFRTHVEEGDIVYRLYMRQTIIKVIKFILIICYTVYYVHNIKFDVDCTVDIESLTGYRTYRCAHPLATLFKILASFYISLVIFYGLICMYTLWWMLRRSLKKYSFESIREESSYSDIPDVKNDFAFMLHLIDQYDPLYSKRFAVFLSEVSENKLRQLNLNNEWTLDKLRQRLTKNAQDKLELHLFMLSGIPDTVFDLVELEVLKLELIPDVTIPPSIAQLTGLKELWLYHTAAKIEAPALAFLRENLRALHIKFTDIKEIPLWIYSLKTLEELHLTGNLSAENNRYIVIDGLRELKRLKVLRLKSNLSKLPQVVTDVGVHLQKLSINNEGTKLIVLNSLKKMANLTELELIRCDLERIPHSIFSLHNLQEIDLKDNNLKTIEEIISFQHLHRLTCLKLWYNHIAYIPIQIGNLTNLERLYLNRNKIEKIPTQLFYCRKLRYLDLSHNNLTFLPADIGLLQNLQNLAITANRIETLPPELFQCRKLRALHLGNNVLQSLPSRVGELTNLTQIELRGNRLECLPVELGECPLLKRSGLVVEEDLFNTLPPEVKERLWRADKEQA

VRAC [2] = target: T4, VRAC; conditions: read-out: VRAC IC50; YFP fluorescence quenching, LN215 cells, hypotonic solution 5 min, n = 4

T1 sequence (P13569 whole entry): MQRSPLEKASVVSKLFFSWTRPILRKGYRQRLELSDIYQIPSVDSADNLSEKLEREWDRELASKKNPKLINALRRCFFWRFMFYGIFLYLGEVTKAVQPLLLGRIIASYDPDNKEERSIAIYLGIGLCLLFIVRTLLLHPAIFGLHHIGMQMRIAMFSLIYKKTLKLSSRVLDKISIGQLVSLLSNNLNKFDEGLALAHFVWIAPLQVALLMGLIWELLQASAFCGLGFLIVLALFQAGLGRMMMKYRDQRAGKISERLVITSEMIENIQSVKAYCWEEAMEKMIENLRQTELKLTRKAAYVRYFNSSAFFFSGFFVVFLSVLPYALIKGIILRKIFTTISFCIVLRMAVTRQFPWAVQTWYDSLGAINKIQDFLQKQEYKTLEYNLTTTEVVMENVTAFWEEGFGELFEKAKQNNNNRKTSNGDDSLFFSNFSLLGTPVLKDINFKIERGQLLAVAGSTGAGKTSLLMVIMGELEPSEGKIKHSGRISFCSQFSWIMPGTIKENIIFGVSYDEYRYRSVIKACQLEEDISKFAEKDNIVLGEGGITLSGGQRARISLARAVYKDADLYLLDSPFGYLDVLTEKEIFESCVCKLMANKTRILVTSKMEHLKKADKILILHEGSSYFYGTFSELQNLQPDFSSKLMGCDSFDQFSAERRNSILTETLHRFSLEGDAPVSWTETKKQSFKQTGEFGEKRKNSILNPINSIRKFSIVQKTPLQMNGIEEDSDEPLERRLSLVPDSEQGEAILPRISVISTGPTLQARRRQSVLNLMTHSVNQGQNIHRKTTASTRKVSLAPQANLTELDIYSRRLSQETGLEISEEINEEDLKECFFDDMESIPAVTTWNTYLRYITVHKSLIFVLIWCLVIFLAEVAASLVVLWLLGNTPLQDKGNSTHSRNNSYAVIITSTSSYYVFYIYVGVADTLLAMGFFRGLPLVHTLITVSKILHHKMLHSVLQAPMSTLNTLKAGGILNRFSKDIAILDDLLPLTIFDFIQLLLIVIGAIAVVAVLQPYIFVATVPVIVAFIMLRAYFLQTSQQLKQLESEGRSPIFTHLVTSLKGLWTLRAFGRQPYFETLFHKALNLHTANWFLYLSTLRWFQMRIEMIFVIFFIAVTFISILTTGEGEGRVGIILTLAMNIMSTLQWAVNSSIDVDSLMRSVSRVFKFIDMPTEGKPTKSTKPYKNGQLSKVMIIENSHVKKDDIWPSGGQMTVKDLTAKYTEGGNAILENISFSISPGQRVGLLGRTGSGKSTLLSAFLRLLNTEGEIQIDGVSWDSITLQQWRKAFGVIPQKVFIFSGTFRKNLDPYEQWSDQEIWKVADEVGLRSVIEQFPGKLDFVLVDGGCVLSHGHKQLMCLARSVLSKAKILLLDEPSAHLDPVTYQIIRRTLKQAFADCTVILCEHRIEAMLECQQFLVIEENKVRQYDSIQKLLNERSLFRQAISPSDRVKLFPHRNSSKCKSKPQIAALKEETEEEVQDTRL

Row | Structure (SMILES) | block of CFTR (human CFTR) | block of ANO2 (human ANO2) | IC50 (ANO1) [µM] | IC50 (VRAC [1]) | IC50 (VRAC [2]) [µM]
1 | O=C(O)c1ccc(/C=C2\SC(=S)N(c3cccc(C(F)(F)F)c3)C2=O)cc1 [CFTRinh−172] | completely blocked | – | – | – | –
2 | CCc1c(C)nc(SCC(=O)Nc2nc(-c3ccc(OC)cc3)cs2)[nH]c1=O [T16Ainh-A01, reference compound] | – | completely blocked | – | – | –
3 | O=c1oc2ccccc2c(O)c1C(c1cc([N+](=O)[O-])ccc1Cl)c1c(O)c2ccccc2oc1=O [VI-101] | – | – | 3.2 | 3.3 µM | –
4 | O=c1oc2ccccc2c(O)c1C(c1ccc(Cl)c([N+](=O)[O-])c1)c1c(O)c2ccccc2oc1=O [VI-102] | – | – | 3 | 0.8 µM | –
5 | O=c1oc2ccccc2c(O)c1C(c1cc([N+](=O)[O-])c(Cl)cc1Cl)c1c(O)c2ccccc2oc1=O [VI-103] | – | – | 3.2 | 3.3 µM | –
6 | O=c1oc2ccccc2c(O)c1C(c1cc([N+](=O)[O-])cc([N+](=O)[O-])c1Cl)c1c(O)c2ccccc2oc1=O [VI-104] | – | – | 37.9 | 30 µM | –
7 | O=c1oc2ccccc2c(O)c1C(c1cccc([N+](=O)[O-])c1)c1c(O)c2ccccc2oc1=O [VI-105] | – | – | 3.8 | 4.9 µM | –
8 | CN(C)c1ccc(C(c2c(O)c3ccccc3oc2=O)c2c(O)c3ccccc3oc2=O)cc1[N+](=O)[O-] [VI-106] | – | – | 3.6 | 1.3 µM | –
9 | O=c1oc2ccccc2c(O)c1C(c1ccccc1)c1c(O)c2ccccc2oc1=O [VI-107] | – | – | 95.2 | – | 103
10 | O=c1oc2ccccc2c(O)c1C(c1ccncc1)c1c(O)c2ccccc2oc1=O [VI-108] | – | – | 34.7 | 17 µM | –
11 | O=c1oc2ccccc2c(O)c1C(c1ccccc1Cl)c1c(O)c2ccccc2oc1=O [VI-109] | – | – | 2 | 0.9 µM | –
12 | O=c1oc2ccccc2c(O)c1C(c1ccccc1F)c1c(O)c2ccccc2oc1=O [VI-110] | – | – | 4.8 | 0.58 µM and 0.6 µM | –
13 | CCN(CC)c1ccc(C(c2c(O)c3ccccc3oc2=O)c2c(O)c3ccccc3oc2=O)cc1 [VI-111] | – | – | 3.2 | 2.9 µM | –
14 | CC(C)Oc1ccc(C(c2c(O)c3ccccc3oc2=O)c2c(O)c3ccccc3oc2=O)cc1 [VI-112] | – | – | 0.8 | 1.4 µM | –
15 | O=c1oc2ccccc2c(O)c1C(c1ccc2c(c1)OCO2)c1c(O)c2ccccc2oc1=O [VI-113] | – | – | 3.9 | 1.9 µM | –
16 | O=c1oc2ccccc2c(O)c1C(c1cc2c(cc1[N+](=O)[O-])OCO2)c1c(O)c2ccccc2oc1=O [VI-114] | – | – | 20.3 | 10.6 µM | –
17 | O=c1oc2ccccc2c(O)c1C(c1ccc(O)c(O)c1)c1c(O)c2ccccc2oc1=O [VI-115] | – | – | 61.6 | 47.9 µM | –
18 | CCOc1cc(C(c2c(O)c3ccccc3oc2=O)c2c(O)c3ccccc3oc2=O)ccc1O [VI-117] | – | – | 14.2 | 6.8 µM | –
19 | COc1ccc(C(c2c(O)c3ccccc3oc2=O)c2c(O)c3ccccc3oc2=O)cc1OC [VI-118] | – | – | 14.2 | 4 µM | –
20 | CCOc1ccc(C(c2c(O)c3ccccc3oc2=O)c2c(O)c3ccccc3oc2=O)cc1OC [VI-119] | – | – | 4.9 | 12 µM | –
21 | COc1cc(OC)cc(C(c2c(O)c3ccccc3oc2=O)c2c(O)c3ccccc3oc2=O)c1 [VI-120] | – | – | 3.9 | 9.3 µM | –
